PubChem BioAssay (NCI)
Where “and” joins values, the source holds several entries; their conditions need not be identical. Equal entries are not always repeated.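 Cultured in 96-well plates, cells were exposed to test compound for 48 hours across five concentrations. The concentration for 50% growth inhibition is given as GI50. TGI marks complete inhibition of growth.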

Legend:
Experiment in all cases: DTP human tumour cell line panel, 48 h
SK-MEL-5 melanoma = system: SK-MEL-5 melanoma
RXF 393 renal = system: RXF 393 renal
OVCAR-5 ovarian = system: OVCAR-5 ovarian
OVCAR-8 ovarian = system: OVCAR-8 ovarian
TK-10 renal = system: TK-10 renal
MDA-MB-231 breast = system: MDA-MB-231 breast
SF-295 CNS = system: SF-295 CNS
HOP-62 NSCLC = system: HOP-62 NSCLC
786-0 renal = system: 786-0 renal
IGROV1 ovarian = system: IGROV1 ovarian
LOX IMVI melanoma = system: LOX IMVI melanoma
MALME-3M melanoma = system: MALME-3M melanoma
HCC-2998 colon = system: HCC-2998 colon
MOLT-4 leukemia = system: MOLT-4 leukemia
SR leukemia = system: SR leukemia
KM12 colon = system: KM12 colon
M14 melanoma = system: M14 melanoma
OVCAR-4 ovarian = system: OVCAR-4 ovarian
HL-60(TB) leukemia = system: HL-60(TB) leukemia
SF-268 CNS = system: SF-268 CNS
MDA-MB-435 = system: MDA-MB-435
NCI-H23 lung = system: NCI-H23 lung
NCI/ADR-RES ovarian = system: NCI/ADR-RES ovarian
EKVX NSCLC = system: EKVX NSCLC
RPMI-8226 leukemia = system: RPMI-8226 leukemia
HCT-15 colon = system: HCT-15 colon
NCI-H226 lung = system: NCI-H226 lung
SF-539 CNS = system: SF-539 CNS
ACHN renal = system: ACHN renal
UO-31 renal = system: UO-31 renal

CC(C)C[C@@H](NC(=O)[C@@H](Cc1ccccc1)NC(=O)c1cnccn1)B1Oc2ccc(C[C@H](NC(=O)[C@H](Cc3ccc4c(c3)OB([C@@H](CC(C)C)NC(=O)[C@@H](Cc3ccccc3)NC(=O)c3cnccn3)O4)NC(=O)[C@@H](N)CC3CCC4OB([C@@H](CC(C)C)NC(=O)[C@@H](CC5CCCCC5)NC(=O)C5CNCCN5)OC4C3)C(=O)NCCCC[C@@H]3NC(=O)[C@@H](Cc4ccccc4)NC(=O)[C@H](CC(=O)O)NC(=O)CNC(=O)[C@H](CCCNC(=N)N)NC3=O)cc2O1 (stereo not given in full)
TGI (SK-MEL-5 melanoma): 8.71 nM and 4.81 nM | GI50 (RXF 393 renal): 2.44 nM and < 2.5 nM | TGI (RXF 393 renal): 5.8 nM and < 2.5 nM | GI50 (OVCAR-5 ovarian): 7.84 nM and 3.82 nM | TGI (OVCAR-5 ovarian): 132 nM and 360 nM | GI50 (OVCAR-8 ovarian): 22 nM and 8.17 nM | GI50 (TK-10 renal): 3.19 nM and 2.5 nM | GI50 (MDA-MB-231 breast): 7.73 nM and 2.5 nM | TGI (MDA-MB-231 breast): 56 nM and 20.5 nM | GI50 (SF-295 CNS): 3.65 nM and 2.5 nM | TGI (SF-295 CNS): 17.2 nM and 7.68 nM | GI50 (HOP-62 NSCLC): 7.45 nM and 6.55 nM | TGI (HOP-62 NSCLC): 46.3 nM and 17.7 nM | GI50 (786-0 renal): 3.68 nM and 2.5 nM | GI50 (IGROV1 ovarian): 21.7 nM and 2.5 nM | TGI (IGROV1 ovarian): 250 nM and 917 nM | GI50 (LOX IMVI melanoma): 2.41 nM and < 2.5 nM | TGI (LOX IMVI melanoma): 6.6 nM and < 2.5 nM | GI50 (MALME-3M melanoma): 3.23 nM and 2.5 nM | TGI (MALME-3M melanoma): 105 nM and 20.6 nM | GI50 (HCC-2998 colon): 6.49 nM and 3.89 nM | TGI (HCC-2998 colon): 19.8 nM and 7.63 nM | GI50 (MOLT-4 leukemia): 3.56 nM and 2.5 nM | TGI (MOLT-4 leukemia): > 25000 nM | GI50 (SR leukemia): 4.1 nM | TGI (SR leukemia): 244 nM | GI50 (KM12 colon): 3.94 nM and 2.95 nM | TGI (KM12 colon): 15.2 nM and 8.16 nM | GI50 (M14 melanoma): 3.22 nM and 2.5 nM | GI50 (OVCAR-4 ovarian): 5.05 nM and 2.5 nM | TGI (OVCAR-4 ovarian): 181 nM and 548 nM | GI50 (HL-60(TB) leukemia): 4.42 nM | TGI (HL-60(TB) leukemia): 853 nM | GI50 (SF-268 CNS): 4.1 nM and 2.8 nM | TGI (SF-268 CNS): 27.9 nM and 13.6 nM | GI50 (MDA-MB-435): 2.06 nM and < 2.5 nM | TGI (MDA-MB-435): 4.52 nM and < 2.5 nM | GI50 (NCI-H23 lung): 5.68 nM and 2.5 nM | TGI (NCI-H23 lung): 41.2 nM and 10.8 nM | GI50 (NCI/ADR-RES ovarian): 54.8 nM and 17.4 nM | TGI (NCI/ADR-RES ovarian): 669 nM and 148 nM | GI50 (EKVX NSCLC): 10.6 nM and 7.75 nM | TGI (EKVX NSCLC): 527 nM and 304 nM | GI50 (RPMI-8226 leukemia): 4.32 nM and 2.5 nM | TGI (RPMI-8226 leukemia): 243 nM and 109 nM | GI50 (HCT-15 colon): 4.85 nM and 3.49 nM | TGI (HCT-15 colon): 41 nM and 40.9 nM | GI50 (NCI-H226 lung): 2.29 nM | TGI (NCI-H226 lung): 4.54 nM | GI50 (SF-539 CNS): 2.51 nM and < 2.5 nM | TGI (SF-539 CNS): 7.22 nM and < 2.5 nM | GI50 (ACHN renal): 3.95 nM and 2.5 nM | TGI (ACHN renal): 257 nM and 283 nM | GI50 (UO-31 renal): 4.28 nM and 2.5 nM | TGI (UO-31 renal): 102 nM and 14.8 nM
